The results in this text go back to patent publication EP4682146A1, “COMPOSITION INCLUDING NOVEL PYRIDOINDOLE DERIVATIVE COMPOUND AS ACTIVE INGREDIENT FOR PREVENTION OR TREATMENT OF NEURODEGENERATIVE DISEASES” (Neurotarge Co., Ltd., priority 2023, dated 2024).

Structures are written as SMILES.

This test deals with T1, Tau-Synaptogyrin3 interaction (Homo sapiens, UniProt O43761+P10636).
T1 construct: expressed in transfected cells
T1 sequence (P10636 1-441 isoform P10636-8): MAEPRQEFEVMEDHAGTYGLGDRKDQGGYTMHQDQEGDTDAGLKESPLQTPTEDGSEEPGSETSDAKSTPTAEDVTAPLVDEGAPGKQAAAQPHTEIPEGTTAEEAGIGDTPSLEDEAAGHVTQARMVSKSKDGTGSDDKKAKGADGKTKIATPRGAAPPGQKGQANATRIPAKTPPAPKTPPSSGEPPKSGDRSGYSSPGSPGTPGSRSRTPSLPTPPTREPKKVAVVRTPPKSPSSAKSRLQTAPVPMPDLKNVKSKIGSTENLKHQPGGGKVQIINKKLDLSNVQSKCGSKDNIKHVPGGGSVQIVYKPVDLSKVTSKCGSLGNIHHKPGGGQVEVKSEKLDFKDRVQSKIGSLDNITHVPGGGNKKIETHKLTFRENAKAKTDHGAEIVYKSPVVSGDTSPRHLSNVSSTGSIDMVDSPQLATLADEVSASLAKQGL
T1 sequence (O43761 whole entry): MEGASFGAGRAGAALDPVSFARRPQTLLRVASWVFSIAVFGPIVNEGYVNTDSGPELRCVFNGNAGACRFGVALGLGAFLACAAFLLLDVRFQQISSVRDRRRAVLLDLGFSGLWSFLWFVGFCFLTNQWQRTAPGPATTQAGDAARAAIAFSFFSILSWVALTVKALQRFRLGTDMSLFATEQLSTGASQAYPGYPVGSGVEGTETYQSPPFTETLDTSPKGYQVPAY
Put plainly: Cell-based split luciferase (NanoBit) protein complementary assay for Tau-Synaptogyrin3 interaction in stable cell line HEK293T-TK252-1E2. Particulars: HEK293T-TK252-1E2 cells, 48 hrs compound treatment, L/F value (luciferase activity/fluorescent intensity) compared to DMSO control. The method, then:
Live cell luciferase assay: Live cell luciferase activity was measured using NanoGlo® Live Cell Assay System (Cat# N2012. Promega, WI, USA), according to manufacturer's instruction. All microplate-based measurement was performed with BioTek Synergy H1 (Agilent. CA, USA).
For producing HEK293T-TK252 stable cell line for screening, BglII-linearized pTK252 was transfected to HEK293T cells. After 24 hrs transfection, the transfected cells were cultured in the culture media containing 1 µg/ml puromycin (10 mM in DMSO, Cat# J61278/ Alfa Aesar. ThermoFisher Korea, Seoul, Korea) for 9 days. Regular media change was performed in every 3 days with fresh puromycin of indicating concentration during the whole selection period. The selected cells were trypsinized and diluted to 5 cells/ml and seeded to 4x 96 well cell culture plates (100 µl/well), and cultured with the cell culture media containing 1 µg/ml puromycin for 11 days. 18 wells that contained only GFP-positive cells were selected for expansion, and cultured with the cell culture media containing 0.1-0.2 µg/ml puromycin for 14 days. 10 clones were discarded during the expansion due to emerging of non-GFP cells, and 8 clones were validated. The selected clone (1E2) was cultured with the cell culture media containing 0.5 µg/ml puromycin for further experiments.
3 µmol of 1,728 compounds were purchased from Otava Chemicals MB (Vilniaus, Lithuania), dissolved into 300 µl DMSO (10 mM) and stored at -80°C. 4x10^4 HEK293T-TK252-1E2 cells were seeded with 100 µl of the cell culture media into 96 white well cell culture plates (Cat# 30196. SPL, Seoul, Korea), 48 hrs prior to compound treatment. For 10 µM compound treatment, 10 mM compound stock was diluted to 50 µM with the cell culture media, and 25 µl of the diluted compound was added to the designated wells of the 96 well plates. For dose-response experiments, the amount of compounds for dilution was adjusted to fit the volume indicated above. After 48 hrs compound treatment, the cells were washed once with OptiMEM and live cell luciferase activity, fluorescent intensity and fluorescence area scan was measured.
1,728 compounds were treated at 10 µM to HEK293T-TK252-1E2 cells and incubated for 48 hrs. […] Single wash step with culture media without FBS was included before measurement to discard dead cells and to remove FBS that affects luciferase assay. […] Fluorescent intensity was taken for normalization, which is expected to be proportion to the cell number at the measuring point. L/F value which is luciferase activity normalized with fluorescent intensity (L/F = Luciferase activity/ Fluorescent intensity) was calculated for all measurements and compared to L/F value of DMSO controls to calculated the size of inhibitory effect. […] Fluorescence area scan (FA) performed right after luciferase activity and fluorescent intensity measurement, to validate total remaining fluorescent cells in a well as a proxy to the cellular toxicity. FA value was in proportion to WST assay results (data not shown), and average CV of triplicates of all measurements was 0.04.
61 compounds were further tested for dose-response profile, based on inhibitory effect that was measured by L/F value (<60%) and FA-based cell viability (>90%) at 10 µM compared to DMSO control. 10 compounds were considered as hit compounds through three times of reproduction.
Usually IC50 stands for the concentration at which inhibition is half-maximal. On to `Cc1ccc(C(=O)N2CCc3[nH]c4ccc(-c5ccc(C)nc5)cc4c3C2)cn1` [Formula 49, (6-methylpyridin-3-yl)(8-(6-methylpyridin-3-yl)-1,3,4,5-tetrahydro-2H-pyrido[4,3-b]indol-2-yl)methanone], for which the IC50 lay within 12 to 25 µM.

With `Cc1ccc(C(=O)N2CCc3[nH]c4ccc(-c5ccc(C)cc5)cc4c3C2)cc1` [Formula 37, p-Tolyl(8-(p-Tolyl)-1,3,4,5-tetrahydro-2H-pyrido[4,3-b]indol-2-yl)methanone], the IC50 is below 3 µM.

Take `O=C(c1cccnc1)N1CCc2[nH]c3ccc(-c4cccnc4)cc3c2C1` [Formula 31, Pyridin-3-yl(8-(pyridin-3-yl)-1,3,4,5-tetrahydro-2H-pyrido[4,3-b]indol-2-yl)methanone]: the IC50 fell in the range of 12 to 25 µM.

With `Cc1ccc(-c2ccc3[nH]c4c(c3c2)CN(C(=O)Nc2ccccc2)CC4)cc1` [Formula 75, N-phenyl-8-(p-tolyl)-1,3,4,5-tetrahydro-2H-pyrido[4,3-b]indole-2-carboxamide], the IC50 is 12 to 25 µM.

Turning to `Cc1ccc(-c2ccc3[nH]c4c(c3c2)CN(C(=O)C2CCCCC2)CC4)cc1` [Formula 36, Cyclohexyl(8-(p-tolyl)-1,3,4,5-tetrahydro-2H-pyrido[4,3-b]indol-2-yl)methanone], the IC50 lay in the range of 3 to 12 µM.

Take `Cc1ccc(C(=O)N2CCc3[nH]c4ccc(-c5ccccc5C#N)cc4c3C2)cn1` [Formula 60, 2-(2-(6-Methylnicotinoyl)-2,3,4,5-tetrahydro-1H-pyrido[4,3-b]indol-8-yl)benzonitrile]: the IC50 lay in the range of 3 to 12 µM.

Turning to `N#Cc1ccc(-c2ccc3[nH]c4c(c3c2)CN(C(=O)c2cccc(C#N)c2)CC4)cc1` [Formula 55], the IC50 lay within 12 to 25 µM.

For `O=C(c1ccccc1)N1CCc2[nH]c3ccc(-c4ccc([N+](=O)[O-])cc4)cc3c2C1` [Formula 71, (8-(4-nitrophenyl)-1,3,4,5-tetrahydro-2H-pyrido[4,3-b]indol-2-yl)(phenyl)methanone], the IC50 was below 3 µM.

Regarding `Cc1ccc(-c2ccc3[nH]c4c(c3c2)CN(C(=O)c2ccccc2)CC4)cc1` [Formula 30, Phenyl(8-(p-tolyl)-1,3,4,5-tetrahydro-2H-pyrido[4,3-b]indol-2-yl)methanone], the IC50 was below 3 µM.

Turning to `N#Cc1cccc(-c2ccc3[nH]c4c(c3c2)CN(C(=O)c2ccccc2)CC4)c1` [Formula 58, 3-(2-benzoyl-2,3,4,5-tetrahydro-1H-pyrido[4,3-b]indol-8-yl)benzonitrile], the IC50 is 3 to 12 µM.

`Cc1ccc(C(=O)N2CCc3[nH]c4ccc(-c5cccc(C#N)c5)cc4c3C2)cc1` [Formula 56, 3-(2-(4-Methylbenzoyl)-2,3,4,5-tetrahydro-1H-pyrido[4,3-b]indol-8-yl)benzonitrile]: the IC50 lay in the range of 3 to 12 µM.

Take `Cc1ccc2[nH]c3c(c2c1)CN(C(=O)c1ccccc1)CC3` [Formula 68, (8-methyl-1,3,4,5-tetrahydro-2H-pyrido[4,3-b]indol-2-yl)(phenyl)methanone]: the IC50 was in the range of 3 to 12 µM.

As for `O=C(c1cnccn1)N1CCc2[nH]c3ccc(-c4ccccc4)cc3c2C1` [Formula 7, (8-phenyl-1,3,4,5-tetrahydro-2H-pyrido[4,3-b]indol-2-yl)(pyrazin-2-yl)methanone], the IC50 is 3 to 12 µM.

As to `N#Cc1ccc(-c2ccc3[nH]c4c(c3c2)CN(C(=O)c2cccnc2)CC4)cc1` [Formula 51], the IC50 was 3 to 12 µM.

Take `Cc1cncc(C(=O)N2CCc3[nH]c4ccc(-c5ccccc5)cc4c3C2)c1` [Formula 4, (5-methylpyridin-3-yl)(8-phenyl-1,3,4,5-tetrahydro-2H-pyrido[4,3-b]indol-2-yl)methanone]: the IC50 was in the range of 3 to 12 µM.

With `O=C(c1cccc(Cl)c1)N1CCc2[nH]c3ccc(-c4ccccc4)cc3c2C1` [Formula 13, (3-chlorophenyl)(8-phenyl-1,3,4,5-tetrahydro-2H-pyrido[4,3-b]indol-2-yl)methanone], the IC50 lay in the range of 12 to 25 µM.
